{"source": "paper PMC117120", "about": "(BMC Biochemistry, 2002)", "key": {"[1]": {"biological_target": "T1, Y152A mutant mouse 5-HT3ASR (Mus musculus, UniProt P23979, Y153A)", "T1 sequence (P23979 24-483 isoform P23979-2 Y153A)": "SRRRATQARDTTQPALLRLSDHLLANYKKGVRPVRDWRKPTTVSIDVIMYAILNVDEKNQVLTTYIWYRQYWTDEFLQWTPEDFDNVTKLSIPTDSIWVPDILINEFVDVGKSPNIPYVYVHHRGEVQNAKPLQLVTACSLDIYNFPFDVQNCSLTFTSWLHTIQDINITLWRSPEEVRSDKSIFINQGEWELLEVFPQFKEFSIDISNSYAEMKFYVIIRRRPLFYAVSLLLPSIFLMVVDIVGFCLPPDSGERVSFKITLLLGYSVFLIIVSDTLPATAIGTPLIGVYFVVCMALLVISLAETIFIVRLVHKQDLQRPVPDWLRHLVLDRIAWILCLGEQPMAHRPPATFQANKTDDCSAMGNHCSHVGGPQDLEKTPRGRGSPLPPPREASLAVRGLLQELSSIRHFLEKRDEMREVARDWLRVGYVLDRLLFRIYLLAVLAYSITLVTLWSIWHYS", "experiment": "Inhibition of [^3H]granisetron binding, Y152A receptor", "settings": "for relative increase in Ki, mutant vs wildtype: Y152A vs wildtype"}, "[2]": {"biological_target": "T2, V143A mutant mouse 5-HT3ASR (Mus musculus, UniProt P23979, V144A)", "T2 sequence (P23979 24-483 isoform P23979-2 V144A)": "T1 sequence (P23979 24-483 isoform P23979-2 Y153A) with V121A, A130Y", "experiment": "biochemical"}, "[3]": {"biological_target": "T3, H145A mutant mouse 5-HT3ASR (Mus musculus, UniProt P23979, H146A)", "T3 sequence (P23979 24-483 isoform P23979-2 H146A)": "T1 sequence (P23979 24-483 isoform P23979-2 Y153A) with H123A, A130Y", "experiment": "biochemical"}, "[4]": {"biological_target": "T4, R146A mutant mouse 5-HT3ASR (Mus musculus, UniProt P23979, R147A)", "T4 sequence (P23979 24-483 isoform P23979-2 R147A)": "T1 sequence (P23979 24-483 isoform P23979-2 Y153A) with R124A, A130Y", "experiment": "biochemical"}, "[5]": {"biological_target": "T5, Q150A mutant mouse 5-HT3ASR (Mus musculus, UniProt P23979, Q151A)", "T5 sequence (P23979 24-483 isoform P23979-2 Q151A)": "T1 sequence (P23979 24-483 isoform P23979-2 Y153A) with Q128A, A130Y", "experiment": "biochemical"}, "[6]": {"biological_target": "T6, K153A mutant mouse 5-HT3ASR (Mus musculus, UniProt P23979, K154A)", "T6 sequence (P23979 24-483 isoform P23979-2 K154A)": "T1 sequence (P23979 24-483 isoform P23979-2 Y153A) with A130Y, K131A", "experiment": "biochemical"}}, "note": "Changes are numbered by the printed parent chain. “And” between values parts separate entries of the source, which are not always exact repeats. Equal values may be shown once."}
{"molecule": "COc1cc2c3cc1Oc1cc(ccc1O)C[C@@H]1c4c(cc(OC)c(O)c4Oc4ccc(cc4)C[C@@H]3N(C)CC2)CC[N+]1(C)C", "note": "[d-tc, d-tubocurarine]", "values": [{"measurement": "Ki", "setting": "[1]", "value": "60 ± 19", "unit": "nM"}, {"measurement": "relative increase in Ki, mutant vs wildtype", "setting": "[1]", "value": "10.0 ± 2.3 fold and 10 fold"}, {"measurement": "Ki", "setting": "[2]", "value": "22 ± 2.6", "unit": "nM"}, {"measurement": "Ki", "setting": "[3]", "value": "19 ± 2.6", "unit": "nM"}, {"measurement": "Ki", "setting": "[4]", "value": "29 ± 4.9", "unit": "nM"}, {"measurement": "Ki", "setting": "[5]", "value": "9.3 ± 1.3", "unit": "nM"}, {"measurement": "Ki", "setting": "[6]", "value": "17 ± 3", "unit": "nM"}]}
{"molecule": "c1ccc(Cn2c(N3CCNCC3)nc3ccccc32)cc1", "note": "[lerisetron]", "values": [{"measurement": "Ki", "setting": "[1]", "value": "150 ± 36", "unit": "nM"}, {"measurement": "relative increase in Ki, mutant vs wildtype", "setting": "[1]", "value": "190 ± 43 fold and 190 fold"}, {"measurement": "Ki", "setting": "[2]", "value": "1.5 ± 0.41", "unit": "nM"}, {"measurement": "Ki", "setting": "[3]", "value": "0.42 ± 0.04", "unit": "nM"}, {"measurement": "Ki", "setting": "[4]", "value": "2.3 ± 0.31", "unit": "nM"}, {"measurement": "Ki", "setting": "[5]", "value": "1.1 ± 0.21", "unit": "nM"}, {"measurement": "Ki", "setting": "[6]", "value": "3 ± 0.66", "unit": "nM"}]}
